Some test systems named below: SR leukemia; U251 CNS; NCI-H226 lung; UO-31 renal; K-562 leukemia; HOP-92 NSCLC; UACC-62 melanoma; 786-0 renal; HCT-15 colon; SNB-75 CNS.
What all share (assay): inhibition of tumour cell growth, NCI panel, 48 h

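Values below derive from 48-hour exposures of cells grown in 96-well plates, with endpoints linearly interpolated between the two concentrations bracketing the appropriate inhibition level. GI50 = concentration required for 50% inhibition of growth. TGI is the concentration that stops growth completely.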

As for `CCCCN(CCCC)c1ccc(C(=N)c2ccc(N(CCCC)CCCC)cc2)cc1`, the GI50 was 0.287 µM in the assay on SR leukemia; 0.351 µM with U251 CNS; 0.593 µM in the assay on NCI-H226 lung; 0.32 µM with UO-31 renal; 0.287 µM in the assay on K-562 leukemia; 0.235 µM in the assay on HOP-92 NSCLC. Besides, the GI50 in the assay with UACC-62 melanoma was 0.369 µM; in the assay on 786-0 renal, 0.847 µM; with HCT-15 colon, 0.418 µM; in the assay with SNB-75 CNS, 0.746 µM. Further, the TGI is 1.04 µM in the assay on SR leukemia; 1.28 µM in the assay with U251 CNS; 1.97 µM in the assay with NCI-H226 lung; 1.38 µM in the assay with UO-31 renal; 1.1 µM with K-562 leukemia; 1.46 µM in the assay on HOP-92 NSCLC. In addition, the TGI in the assay on UACC-62 melanoma was 1.5 µM; in the assay with 786-0 renal, 2.25 µM; in the assay on HCT-15 colon, 1.62 µM; in the assay on SNB-75 CNS it was 2.14 µM.
`CN1CC[C@@H](c2c(O)cc(O)c3c(=O)cc(-c4ccccc4Cl)oc23)[C@@H]1CO`: the GI50 was 0.107 µM in the assay on SR leukemia; 0.258 µM in the assay with U251 CNS; 0.239 µM in the assay on NCI-H226 lung; 0.268 µM with UO-31 renal; 0.297 µM with K-562 leukemia; 0.19 µM in the assay with HOP-92 NSCLC. Further, the GI50 in the assay with UACC-62 melanoma was 0.184 µM; in the assay on 786-0 renal, 0.339 µM; in the assay on HCT-15 colon it was 0.351 µM; with SNB-75 CNS, 0.224 µM. The TGI was 0.573 µM in the assay with SR leukemia; above 10 µM with U251 CNS; 0.878 µM in the assay with NCI-H226 lung; above 2.99 µM in the assay on UO-31 renal; above 2.58 µM in the assay on K-562 leukemia; 0.701 µM in the assay on HOP-92 NSCLC. The TGI with UACC-62 melanoma was 0.578 µM; in the assay on 786-0 renal, above 10 µM; in the assay with HCT-15 colon, above 10 µM; in the assay with SNB-75 CNS, 0.622 µM.
Consider `C1=C2/CC[C@H](Sc3ccccc3)[C@H]2C2(CCCCC/1)OCCO2`, for which the TGI in the assay on SR leukemia was above 100 µM; in the assay with U251 CNS it was 63.1 µM; in the assay on UO-31 renal it was above 100 µM; in the assay on K-562 leukemia it was above 100 µM; with HOP-92 NSCLC, 59.1 µM; in the assay on UACC-62 melanoma, 62.4 µM. For the same molecule, the TGI with 786-0 renal, in the assay with HCT-15 colon and in the assay with SNB-75 CNS was above 100 µM throughout.
As for `COC(=O)C1=CC2C(=O)OC1CC2C#N` (configuration not stated), the TGI in the assay on SR leukemia, in the assay on U251 CNS, in the assay on NCI-H226 lung, in the assay on UO-31 renal, in the assay with K-562 leukemia and with HOP-92 NSCLC was above 100 µM each time. Further, the TGI in the assay with UACC-62 melanoma, with 786-0 renal and in the assay on SNB-75 CNS was above 100 µM each time.
On to `COc1cc(C(=O)NC2CCN(C)CC2)c(F)cc1Nc1ncc2c(n1)N(C1CCCC1)CC(F)(F)C(=O)N2C`, for which the GI50 is below 0.01 µM in the assay on SR leukemia; below 0.0204 µM in the assay with U251 CNS; 2.64 µM in the assay on NCI-H226 lung; below 0.01 µM in the assay on K-562 leukemia; 0.0326 µM in the assay on HOP-92 NSCLC; below 0.0237 µM in the assay with UACC-62 melanoma. The GI50 in the assay on 786-0 renal is 0.0435 µM; with HCT-15 colon, below 0.0213 µM. Besides, the TGI was determined as 14.5 µM with U251 CNS; 18.7 µM with NCI-H226 lung; 10.5 µM in the assay on UO-31 renal; 4 µM in the assay with K-562 leukemia; 0.391 µM with HOP-92 NSCLC; 13.7 µM in the assay with UACC-62 melanoma. The TGI in the assay on 786-0 renal was 11.7 µM; in the assay on HCT-15 colon, 14 µM.
Turning to `CCc1cccc(C)c1NC(=O)C(=O)Cc1nc2ccccc2s1`, the TGI is above 100 µM in the assay on SR leukemia; above 100 µM in the assay with U251 CNS; above 100 µM in the assay on NCI-H226 lung; above 100 µM with UO-31 renal; above 100 µM in the assay on K-562 leukemia; 5.88 µM in the assay on HOP-92 NSCLC. The TGI with UACC-62 melanoma, with 786-0 renal and in the assay on SNB-75 CNS was above 100 µM throughout.
With `CC(C)c1cccc2sc(NC(=O)C(=O)C(C#N)c3cccc4ccccc34)nc12` (configuration not stated), the TGI is above 100 µM in the assay with SR leukemia; above 100 µM with U251 CNS; above 100 µM in the assay with NCI-H226 lung; above 100 µM with UO-31 renal; 97.9 µM in the assay with HOP-92 NSCLC; above 100 µM with UACC-62 melanoma. Besides, the TGI with 786-0 renal was above 100 µM; with HCT-15 colon, above 100 µM; in the assay with SNB-75 CNS, 95.4 µM.
As to `CCSCCCN(CCCSCC)CCCSCC`, the TGI in the assay on SR leukemia was above 100 µM; with U251 CNS, above 100 µM; with UO-31 renal, above 100 µM; with K-562 leukemia, above 100 µM; in the assay with HOP-92 NSCLC it was 80.4 µM; in the assay with UACC-62 melanoma, above 100 µM. Also, the TGI with 786-0 renal, in the assay on HCT-15 colon and with SNB-75 CNS was above 100 µM in each case.
For `O=S1(=O)OCCOS(=O)(=O)C1Cc1ccccc1`, the TGI in the assay on SR leukemia, with U251 CNS, in the assay with NCI-H226 lung, with UO-31 renal, with K-562 leukemia and in the assay with HOP-92 NSCLC was above 100 µM each time. In addition, the TGI with UACC-62 melanoma, in the assay with 786-0 renal and in the assay with SNB-75 CNS was above 100 µM each time.
As for `O=C(c1ccccc1)c1cccc(C(=O)c2ccccc2)c1`, the TGI in the assay with SR leukemia, in the assay with U251 CNS, in the assay on NCI-H226 lung, with UO-31 renal, in the assay on K-562 leukemia and with HOP-92 NSCLC was above 100 µM each time. In addition, the TGI in the assay with UACC-62 melanoma, in the assay with 786-0 renal and with SNB-75 CNS was above 100 µM throughout.
For `C[CH2][Sn]([CH2]C)([O]C(=O)C(OC(C)=O)c1ccccc1)[O]C(=O)C(OC(C)=O)c1ccccc1` (configuration not stated), the GI50 in the assay with SR leukemia was 24.3 µM; with U251 CNS it was 37.6 µM; in the assay on NCI-H226 lung it was 29 µM; with UO-31 renal, 19.5 µM; in the assay on K-562 leukemia it was 14.6 µM; in the assay with HOP-92 NSCLC, 18.6 µM. Besides, the GI50 is 19.9 µM in the assay with 786-0 renal, 25.7 µM in the assay on HCT-15 colon and 31.9 µM in the assay with SNB-75 CNS. Moreover, the TGI was above 100 µM in the assay on SR leukemia; above 100 µM in the assay with U251 CNS; 92.7 µM with NCI-H226 lung; 43.4 µM in the assay on UO-31 renal; 45.9 µM with K-562 leukemia; 34.9 µM with HOP-92 NSCLC. For the same molecule, the TGI with 786-0 renal turned out to be 34.8 µM; in the assay with HCT-15 colon, 82.3 µM; with SNB-75 CNS, 99.5 µM.
